“And” between values parts separate entries of the source, which are not always exact repeats. Identical values can stand only once.
Tests used:
[1] = in vitro; details: human
[2] = system: 3D7 P. falciparum parasites; assay: Growth inhibition assay (72 h, LDH activity); format: cell-based, Plasmodium falciparum; details: for (av-uRBC) / (DMSO-uRBC) x100: 3D7
Description: Parasite growth assays with inhibitory compounds were performed as per[11] and are fully described in the Supplementary Information. […]
Growth inhibition assays. Synchronised ring-stage parasites (0.3-0.6% parasitemia, 2% haematocrit) were grown for 72 h in a serial-dilution of the compound under […]
and compound 4. Note that M-833 was first purchased from MolPort (MolPort -002-267-916) then made in-house at WEHI: the differences observed in EC50s across experiments are attributed to the different batches of M -833. For some experiments, 0, 0.25 or 2.5 mM of glucosamine (GlcN) was also added. Experiments were set up in technical duplicates or triplicates. Following a freeze -thaw cycle, lactate dehydrogenase (LDH) activity was assessed as an indicator of parasite growt h 5. 30 μL of parasite culture was incubated for 30 min in the dark with 75 μL Malstat mixture (0.1 M Tris pH 9.0, 20 g/L lactic acid, pH 7.5, 0.2% Triton-X100, 0.5 g/L acetylpyridine adenine dinucleotide (APAD, Sigma), 200 μg/mL nitroblue tetrazolium (NBT; Sigma), 1 μg/mL phenozine ethosulfate (PES; Sigma)). Absorbance was then measured at 650 nm, transformed using the formula below, plotted against the logarithm of the concentrations, and a non-linear regression (log(inhibitor) vs. response, variable slope) was calculated using GraphPad Prism to assess the half-inhibitory […]
Growth inhibition % = (1 − average(sample)− average(uRBC)) ∗ 100 […]
The DMSO samples were also used to assess growth of parasite in the presence of 0.25 and 2.5 mM GlcN (normalised by DMSO in 0 mM GlcN). […]

For Cc1cc(Cl)c(S(=O)(=O)N2CCCC2)cc1OCC(=O)NC1CCCCC1 [M-833], the CC50 [1] was > 40 µM, the “sample/DMSO (growth inhibition vs DMSO, LDH)” value ([2]; 3D7, 0 mM GlcN, M-833 0.000508053 uM, biological replicates 1-3) was 0.3955 and the “sample/DMSO (growth inhibition vs DMSO, LDH)” value ([2]; 3D7, 0 mM GlcN, M-833 0.00152416 uM, biological replicates 1-4) was 3.899 and 0.6135 and 1.269 and -5.021. The “sample/DMSO (growth inhibition vs DMSO, LDH)” value ([2]; 3D7, 0 mM GlcN, M-833 0.00457247 uM, biological replicates 1-4) was 7.9783 and -0.1897 and 1.9685 and -5.962, the “sample/DMSO (growth inhibition vs DMSO, LDH)” value ([2]; 3D7, 0 mM GlcN, M-833 0.0137174 uM, biological replicates 1-4) was 6.577 and 0.4933 and 7.305 and 4.539 and the “sample/DMSO (growth inhibition vs DMSO, LDH)” value ([2]; 3D7, 0 mM GlcN, M-833 0.0411523 uM, biological replicates 1-4) was 17.0189 and 4.351 and 25.6124 and 2.634. The “sample/DMSO (growth inhibition vs DMSO, LDH)” value ([2]; 3D7, 0 mM GlcN, M-833 0.123457 uM, biological replicates 1-4) was 41.0894 and 22.2426 and 56.6492 and 25.1037, the “sample/DMSO (growth inhibition vs DMSO, LDH)” value ([2]; 3D7, 0 mM GlcN, M-833 0.37037 uM, biological replicates 1-4) was 84.744 and 69.3587 and 86.7673 and 75.1317 and the “sample/DMSO (growth inhibition vs DMSO, LDH)” value ([2]; 3D7, 0 mM GlcN, M-833 1.11111 uM, biological replicates 1-4) was 95.6718 and 89.236 and 91.7104 and 88.7258. The “sample/DMSO (growth inhibition vs DMSO, LDH)” value ([2]; 3D7, 0 mM GlcN, M-833 3.33333 uM, biological replicates 1-4) was 96.655 and 91.1143 and 93.0446 and 90.6646, the “Growth inhibition assay, NORMALISED” value ([2]; 3D7, 0 mM GlcN, conc 13.7174 nM) was 13.0746 and the “Growth inhibition assay, NORMALISED” value ([2]; 3D7, 0 mM GlcN, conc 41.1523 nM) was 31.4939. The “Growth inhibition assay, NORMALISED” value ([2]; 3D7, 0 mM GlcN, conc 123.457 nM) was 59.8439, the “Growth inhibition assay, NORMALISED” value ([2]; 3D7, 0 mM GlcN, conc 370.37 nM) was 84.7029 and the “Growth inhibition assay, NORMALISED” value ([2]; 3D7, 0 mM GlcN, conc 1111.11 nM) was 90.8825. The “Growth inhibition assay, NORMALISED” value ([2]; 3D7, 0 mM GlcN, conc 3333.33 nM) was 92.758, the “Growth inhibition assay, NORMALISED” value ([2]; 3D7, 0 mM GlcN, conc 10000 nM) was 93.376 and the “sample/DMSO (growth inhibition vs DMSO, LDH)” value ([2]; 3D7, 0.25 mM GlcN, M-833 0.000508053 uM, biological replicates 1-3) was 3.472 and 0.2055. For the same molecule, the “sample/DMSO (growth inhibition vs DMSO, LDH)” value ([2]; 3D7, 0.25 mM GlcN, M-833 0.00152416 uM, biological replicates 1-4) was 7.594 and 1.781 and -0.4107 and -3.683, the “sample/DMSO (growth inhibition vs DMSO, LDH)” value ([2]; 3D7, 0.25 mM GlcN, M-833 0.00457247 uM, biological replicates 1-4) was 11.6683 and 13.0152 and -3.5254 and -4.48 and the “sample/DMSO (growth inhibition vs DMSO, LDH)” value ([2]; 3D7, 0.25 mM GlcN, M-833 0.0137174 uM, biological replicates 1-4) was 18.8525 and 10.2866 and 0.5749 and 7.343. The “sample/DMSO (growth inhibition vs DMSO, LDH)” value ([2]; 3D7, 0.25 mM GlcN, M-833 0.0411523 uM, biological replicates 1-4) was 37.8978 and 20.6188 and 3.974 and 3.155, the “sample/DMSO (growth inhibition vs DMSO, LDH)” value ([2]; 3D7, 0.25 mM GlcN, M-833 0.123457 uM, biological replicates 1-4) was 60.1495 and 44.3886 and 19.2191 and 24.7586 and the “sample/DMSO (growth inhibition vs DMSO, LDH)” value ([2]; 3D7, 0.25 mM GlcN, M-833 0.37037 uM, biological replicates 1-4) was 90.2604 and 84.0393 and 70.7607 and 72.7038. For the same molecule, the “sample/DMSO (growth inhibition vs DMSO, LDH)” value ([2]; 3D7, 0.25 mM GlcN, M-833 1.11111 uM, biological replicates 1-4) was 94.6962 and 95.3762 and 89.746 and 88.7379, the “sample/DMSO (growth inhibition vs DMSO, LDH)” value ([2]; 3D7, 0.25 mM GlcN, M-833 3.33333 uM, biological replicates 1-4) was 94.1176 and 95.9927 and 91.6288 and 90.366 and the “Growth inhibition assay, NORMALISED” value ([2]; 3D7, 0.25 mM GlcN, conc 123.457 nM) was 65.6199 and 63.1151. The “Growth inhibition assay, NORMALISED” value ([2]; 3D7, 0.25 mM GlcN, conc 370.37 nM) was 87.6963 and 91.9897, the “Growth inhibition assay, NORMALISED” value ([2]; 3D7, 0.25 mM GlcN, conc 1111.11 nM) was 93.5707 and 96.2430 and the “Growth inhibition assay, NORMALISED” value ([2]; 3D7, 0.25 mM GlcN, conc 3333.33 nM) was 94.9648 and 97.4583. The “Growth inhibition assay, NORMALISED” value ([2]; 3D7, 0.25 mM GlcN, conc 10000 nM) was 98.3055 and 95.804, the “NORMALISED (growth inhibition, LDH absorbance vs DMSO and uRBC)” value ([2]; 3D7, 2.5 mM GlcN, M833 dilution point 1 of 10 (starting concentration 10 uM)) was 96.8148 and 98.7231 and 95.2456 and the “NORMALISED (growth inhibition, LDH absorbance vs DMSO and uRBC)” value ([2]; 3D7, 2.5 mM GlcN, M833 dilution point 2 of 10 from 10 uM start) was 95.7251 and 93.6187 and 97.3100. For the same molecule, the “NORMALISED (growth inhibition, LDH absorbance vs DMSO and uRBC)” value ([2]; 3D7, 2.5 mM GlcN, M833 dilution point 3 of 10 from 10 uM start) was 96.9824 and 90.9335 and 96.6034, the “NORMALISED (growth inhibition, LDH absorbance vs DMSO and uRBC)” value ([2]; 3D7, 2.5 mM GlcN, M833 dilution point 4 of 10 from 10 uM start) was 93.881 and 84.8839 and 92.4066 and the “NORMALISED (growth inhibition, LDH absorbance vs DMSO and uRBC)” value ([2]; 3D7, 2.5 mM GlcN, M833 dilution point 5 of 10 from 10 uM start) was 83.487 and 63.7656 and 70.6904. For the same molecule, the “sample/DMSO (growth inhibition vs DMSO, LDH)” value ([2]; 3D7, 2.5 mM GlcN, M-833 0.000508053 uM, biological replicates 1-3) was -0.6607, the “sample/DMSO (growth inhibition vs DMSO, LDH)” value ([2]; 3D7, 2.5 mM GlcN, M-833 0.00152416 uM, biological replicates 1-4) was -1.11 and -0.7648 and -1.644 and -5.451 and the “sample/DMSO (growth inhibition vs DMSO, LDH)” value ([2]; 3D7, 2.5 mM GlcN, M-833 0.00457247 uM, biological replicates 1-4) was 2.378 and 5.032 and -5.671 and -4.085. For the same molecule, the “sample/DMSO (growth inhibition vs DMSO, LDH)” value ([2]; 3D7, 2.5 mM GlcN, M-833 0.0137174 uM, biological replicates 1-4) was 17.2304 and 4.206 and -1.672 and 24.2341, the “sample/DMSO (growth inhibition vs DMSO, LDH)” value ([2]; 3D7, 2.5 mM GlcN, M-833 0.0411523 uM, biological replicates 1-4) was 38.9006 and 17.4059 and 1.86 and 27.5421 and the “sample/DMSO (growth inhibition vs DMSO, LDH)” value ([2]; 3D7, 2.5 mM GlcN, M-833 0.123457 uM, biological replicates 1-4) was 56.4218 and 44.1266 and 25.1289 and 54.0055. For the same molecule, the “sample/DMSO (growth inhibition vs DMSO, LDH)” value ([2]; 3D7, 2.5 mM GlcN, M-833 0.37037 uM, biological replicates 1-4) was 86.8658 and 83.833 and 67.9393 and 76.787, the “sample/DMSO (growth inhibition vs DMSO, LDH)” value ([2]; 3D7, 2.5 mM GlcN, M-833 1.11111 uM, biological replicates 1-4) was 92.389 and 94.7232 and 88.5258 and 88.1778 and the “sample/DMSO (growth inhibition vs DMSO, LDH)” value ([2]; 3D7, 2.5 mM GlcN, M-833 3.33333 uM, biological replicates 1-4) was 94.0803 and 95.4726 and 90.5741 and 88.9113. For the same molecule, the “Growth (Abs) Normalised to DMSO” value ([2]; 3D7, M-833 0.0390625 uM) was 98.5985, the “Growth (Abs) Normalised to DMSO” value ([2]; 3D7, M-833 0.078125 uM) was 87.6094 and the “Growth (Abs) Normalised to DMSO” value ([2]; 3D7, M-833 0.15625 uM) was 73.0137. For the same molecule, the “Growth (Abs) Normalised to DMSO” value ([2]; 3D7, M-833 0.3125 uM) was 46.3221, the “Growth (Abs) Normalised to DMSO” value ([2]; 3D7, M-833 0.625 uM) was 13.1941 and the “Growth (Abs) Normalised to DMSO” value ([2]; 3D7, M-833 1.25 uM) was 5.1955. The “Growth (Abs) Normalised to DMSO” value ([2]; 3D7, M-833 2.5 uM) was 3.473, the “Growth (Abs) Normalised to DMSO” value ([2]; 3D7, M-833 5 uM) was 2.75 and the “Growth (Abs) Normalised to DMSO” value ([2]; 3D7, M-833 10 uM) was 1.893. For the same molecule, the “(av-uRBC) / (DMSO-uRBC) x100” value ([2]; conc. 3.04832 nM, Biological replicate 1 (2021-10-25)) was 99.6118, the “(av-uRBC) / (DMSO-uRBC) x100” value ([2]; conc. 3.04832 nM, Biological replicate 2 (2021-11-03)) was 102.365 and the “(av-uRBC) / (DMSO-uRBC) x100” value ([2]; conc. 9.14495 nM, Biological replicate 1 (2021-10-25)) was 98.5673. For the same molecule, the “(av-uRBC) / (DMSO-uRBC) x100” value ([2]; conc. 9.14495 nM, Biological replicate 2 (2021-11-03)) was 104.012.
